Data from patent US20040220164A1, “Triaza compound immunoregulatory agents” (priority 2001, published 2004).
In brackets after ≈: the same amount, converted by molar mass. Like-named read-outs stand apart in the source and are kept apart here.

Legend:
[1] = system: HHV-7 (KHR strain); assay: Anti-HHV-7 assay in SupT1 cells (antigen expression, flow cytometry, Example 3); assay type: cell-based
Description: For HHV-7, five-fold dilutions of the compounds were added in 500 μl culture medium in 24-well flat bottom plates (Iwaki, Japan), whereupon 2×10^5 SupT1 cells were added in 400 μl culture medium. After 30 min incubation at room temperature, 100 μl of HHV-7 stock was added to each well. HHV-7-infected and mock-infected SupT1 cells were cultured in a final volume of 1 ml medium in the absence of the compounds. On day 4, half of the medium and the cells were replaced and fresh medium without new compound was added. This procedure was repeated every 2 or 3 days. The CPE was checked regularly microscopically. When CPE was observed, the HHV-7 antigen expression was monitored by flow cytometry, as described previously (Zhang, Y. et al. (1999) “Selective activity of various antiviral compounds against HHV-7 infection Antiviral Res. 43, 23-35.)

[2] = system: HIV-1 strain NL4.3; assay: Anti-HIV-1 assay in MT-4 cells (p24 Ag ELISA, Example 3); assay type: cell-based
Description: Antiviral Assays. For HIV-1, MT-4 cells were infected with the HIV-1 strain NL4.3. Briefly, five-fold dilutions of the compounds (in 100 μl) were added to 96-well flat bottom plates (Iwaki, Japan). Then, to each well, 7.5×10^4 MT-4 cells were added in 50 μl medium, followed by 50 μl of diluted HIV-1 stock (strain NL4.3). Cytopathic effect (CPE) induced by the virus was checked regularly microscopically. When strong CPE was observed (after 3 to 5 days of incubation) in untreated HIV-1 infected cells, the supernatant was collected, stored at −20° C. and analyzed for HIV-1 core antigen by p24 Ag ELISA (NEN™, PerkinElmer Life Sciences, Boston, Mass.). Finally, the IC50 value of the compounds (i.e., the concentration of the compound required for 50% reduction of HIV infection as measured by viral p24 antigen level in the supernatant of infected MT-4 cells) was calculated.

[3] = Cytotoxicity assay (trypan blue exclusion, propidium iodide); assay type: cell-based, human; conditions: human, read-out: CC50 (50% cytotoxic concentration)
Description: Cytotoxicity Assay. Cellular toxicity of the compounds was measured by trypan blue exclusion and also by Propidium Iodide by flow cytometry after 3 or 4 days of incubation, in parallel with the CD4 antigen expression. The CC50 value of each CADA analog is the concentration (in μg/ml) required to reduce the viability of the cells by 50%.

[4] = target: T1, CD4 (Homo sapiens, UniProt P01730); assay: CD4 down-modulation, flow cytometry with FITC-conjugated anti-CD4 (SK3) mAb, MT-4 cells; assay type: cell-based; set-up: To study the effect of the CADA derivatives on surface CD4 antigen expression, MT-4 and SupT1 cells were incubated; endogenous in cells; host or cells: MT-4, SupT1, PBMC; conditions: for IC50: MT-4 cells, day 3, read-out: IC50 CD4 (50% inhibition of extracellular CD4 expression) (converted); for CD4 down-modulating activity, fold less active than CADA: compared to CADA, MT-4 cells (stated for some compounds); for CD4 down-modulating activity compared with CADA or parent analog (in words): structure-activity discussion of Table 5 (MT-4 and SupT1 cells)
Description: Flow Cytometric Analyses. To study the effect of the CADA derivatives on surface CD4 antigen expression, MT-4 and SupT1 cells were incubated with a serial 5-fold dilution of the compounds (50, 10, 2, 0.4 and 0.08 μg/ml) or medium at 37° C. […] Briefly, after washing with phosphate-buffered saline (PBS) containing 2% fetal calf serum (FCS), cells were incubated with FITC-conjugated anti-CD4 (SK3) mAb for 30 min at 4° C. As a negative control for a specific background staining, cells were stained in parallel with Simultest Control γ1/γ^2a (Becton Dickinson). Then the cells were washed, fixed with 1% formaldehyde and analyzed by flow cytometry in a FACScalibur (Becton Dickinson, San Jose, Calif., USA). Data were acquired and analyzed with CellQuest software (Becton Dickinson). For the calculation of the CD4 receptor expression, the mean fluorescence intensity (MFI) of each sample was expressed as percentage of the MFI of control cells (after subtracting the MFI of the isotype control). Finally, the IC50 value of the compounds (i.e., the concentration of the compound required for 50% inhibition of extracellular CD4 expression) was calculated.

[5] = target: T1, CD4; assay: CD4 down-modulation, flow cytometry with FITC-conjugated anti-CD4 (SK3) mAb, SupT1 cells; assay type: cell-based; set-up: To study the effect of the CADA derivatives on surface CD4 antigen expression, MT-4 and SupT1 cells were incubated; endogenous in cells; host or cells: MT-4, SupT1, PBMC; conditions: day 4, read-out: IC50 CD4 (50% inhibition of extracellular CD4 expression) (converted)
Description: Flow Cytometric Analyses. To study the effect of the CADA derivatives on surface CD4 antigen expression, MT-4 and SupT1 cells were incubated with a serial 5-fold dilution of the compounds (50, 10, 2, 0.4 and 0.08 μg/ml) or medium at 37° C. Cell surface CD4 antigen expression was analyzed at day 3 (MT-4) or day 4 (SupT1). Briefly, after washing with phosphate-buffered saline (PBS) containing 2% fetal calf serum (FCS), cells were incubated with FITC-conjugated anti-CD4 (SK3) mAb for 30 min at 4° C. As a negative control for a specific background staining, cells were stained in parallel with Simultest Control γ1/γ^2a (Becton Dickinson). Then the cells were washed, fixed with 1% formaldehyde and analyzed by flow cytometry in a FACScalibur (Becton Dickinson, San Jose, Calif., USA). Data were acquired and analyzed with CellQuest software (Becton Dickinson). For the calculation of the CD4 receptor expression, the mean fluorescence intensity (MFI) of each sample was expressed as percentage of the MFI of control cells (after subtracting the MFI of the isotype control). Finally, the IC50 value of the compounds (i.e., the concentration of the compound required for 50% inhibition of extracellular CD4 expression) was calculated.

[6] = target: T1, CD4; assay: Cell surface CD4 expression by flow cytometry (anti-CD4 mAb Leu3a-PE); assay type: cell-based; set-up: To study the effect of the CADA derivatives on surface CD4 antigen expression, MT-4 and SupT1 cells were incubated; endogenous in cells; host or cells: MT-4, SupT1, PBMC
Description: FIGS. 2A-2C. Surface CD4 expression in MT-4 cell line, SupT1 cell line and PBMCs after incubation with CADA hydrochloride (3.2 or 16 μM) for 1 and 4 days. (A) Cell surface CD4 expression of control MT-4 cells and MT-4 cells treated with CADA (3.2 μM) for 1 day or 4 days. (B) Cell surface CD4 expression of control SupT1 cells and SupT1 cells treated with CADA (3.2 μM) for 1 day or 4 days. (C) Cell surface CD4 expression of control PBMCs and PBMCs treated with CADA (16 μM) for 1 day or 4 days. The cells were stained with anti-CD4 mAb (Leu3a-PE). Percentages of fluorescent cells and MFI (mean fluorescence intensity) are indicated in each histogram.
FIG. 4. Comparison of the effects on CD4 modulation by ATA (24 μM), CADA hydrochloride (16 μM) and PMA (8 nM) in SupT1 cells after incubation with the compounds analyzed after 20 minutes, 4 hours, 1 day and 4 days.
Cells were incubated with CADA hydrochloride and the CD4 expression on the cell surface was analyzed. […] In peripheral blood mononuclear cells (PBMCs), the percentage of CD4 expression decreased to 0.2% after incubation with CADA (16 μM) for 4 days (FIG. 2).
Expression of various other surface antigens was also examined in MT-4 cells, SupT1 cells and PBMCs after incubation with CADA (16 μM) or CADA-free medium at 37° C. for 4 days. After washing with phosphate-buffered saline (PBS) containing 2% FCS(fetal calf serum), the cells were incubated with mAb (as indicated in Table 1) for 20 min at 4° C. Then the cells were washed, fixed with 1% formaldehyde and analyzed by flow cytometry. All mAbs were purchased from Becton-Dickinson (Erembodegem, Belgium).
CADA was compared with ATA and PMA with regard to their down-modulating effects. […] At day 4, the CD4 expression in SupT1 cells treated with CADA reduced to 1.2%.

[7] = SUP-T1, SupT1 cells, read-out: IC50 HHV-7 (50% reduction of HHV-7 antigen expression)
[8] = Human immunodeficiency virus 1, MT4, MT-4 cells, read-out: IC50 HIV-1 (NL4.3), p24 Ag ELISA

| Compound | IC50 [1, 7] [µg/mL] | IC50 [2, 8] [µg/mL] | CC50 ([3]; MT-4 cells) [µg/mL] | CC50 ([3]; SupT1 cells) [µg/mL] | IC50 [4] [µM] | CD4 down-modulating activity, fold less active than CADA [4] [fold] | IC50 [5] [µM] | CD4 down-modulating activity compared with CADA or parent analog (in words) [4] | down-regulation of CD4 expression (in words) [6] | IC50 ([1]; SUP-T1, read-out: IC50 HHV-7 (50% reduction of HHV-7 antigen expression)) [µg/mL] | IC50 ([2]; Human immunodeficiency virus 1, MT4, read-out: IC50 HIV-1 (NL4.3), p24 Ag ELISA) [µg/mL] |
| --- | --- | --- | --- | --- | --- | --- | --- | --- | --- | --- | --- |
| Cc1ccc(S(=O)(=O)N2CCCN(Cc3ccccc3)CCCN(S(=O)(=O)c3ccc(C)cc3)CC(CO)C2)cc1 [HJC321] | 1.94 (≈ 3.23 µM) | 3.88 (≈ 6.47 µM) | 26.1 (≈ 43.5 µM) | > 50 | 3.32 | 6 | 5.28 |  |  |  |  |
| Cc1ccc(S(=O)(=O)N2CCCN(Cc3ccccc3)CCCN(S(=O)(=O)c3ccc(C)cc3)CC(=O)C2)cc1 [MFS010] | 4.43 (≈ 7.59 µM) | > 10 | 29.3 (≈ 50.2 µM) | > 50 | > 17.1 |  | > 85.6 | significantly decreased |  |  |  |
| C=C1CN(S(C)(=O)=O)CCCN(Cc2ccccc2)CCCN(S(C)(=O)=O)C1 [MFS105] | > 50 | > 50 | > 50 | > 50 | > 116 |  | > 116 | significant loss |  |  |  |
| C=C1CN(S(=O)(=O)c2ccc(COCCCC)cc2)CCCN(Cc2ccccc2)CCCN(S(=O)(=O)c2ccc(COCCCC)cc2)C1 [MFS117] | 0.92 (≈ 1.27 µM) | ≥ 10 | 18.9 (≈ 26 µM) | > 50 | > 13.8 |  | > 68.9 | significant loss |  |  |  |
| Cc1ccc(S(=O)(=O)N2CCCN(Cc3ccccc3)CCCN(S(=O)(=O)c3ccc(C)cc3)CCC2)cc1 [MFS-SC001] | 0.65 (≈ 1.14 µM) | > 10 | 23.1 (≈ 40.5 µM) | 32.2 (≈ 56.5 µM) | 12.4 | 20 | 7.18 |  |  |  |  |
| C=C1CN(S(=O)(=O)c2ccc(C)cc2)CCCN(CC2CC=CCC2)CCCN(S(=O)(=O)c2ccc(C)cc2)C1 (stereo not shown) [QJ023] | 0.1 (≈ 0.171 µM) | 0.29 (≈ 0.495 µM) | 22.2 (≈ 37.9 µM) | 28.9 (≈ 49.3 µM) | 0.444 |  | 0.615 | slightly enhanced | down-regulate CD4 expression |  |  |
| C=C1CN(S(=O)(=O)c2ccc(C)cc2)CCCN(Cc2ccc[nH]2)CCCN(S(=O)(=O)c2ccc(C)cc2)C1 [QJ027] |  |  | 20.2 (≈ 35.4 µM) | 21.7 (≈ 38 µM) | 6.78 | 10 | 10.5 |  | down-regulate CD4 expression | 3.1 (≈ 5.43 µM) | 4.4 (≈ 7.71 µM) |
| C=C1CN(S(=O)(=O)c2ccc(C)cc2)CCCN(CCC)CCCN(S(=O)(=O)c2ccc(C)cc2)C1 [QJ029] | 0.91 (≈ 1.7 µM) | 2 (≈ 3.75 µM) | 20.7 (≈ 38.8 µM) | 22.2 (≈ 41.6 µM) | 4.83 |  | 5.73 | somewhat in between | down-regulate CD4 expression |  |  |
| C=C1CN(S(=O)(=O)c2ccc(C)cc2)CCCN(Cc2ccncc2)CCCN(S(=O)(=O)c2ccc(C)cc2)C1 [QJ030] | 1.59 (≈ 2.73 µM) | 2.36 (≈ 4.05 µM) | 21.3 (≈ 36.5 µM) | > 50 | 4.41 | 9 | 12.4 |  | down-regulate CD4 expression |  |  |
